EC50 data for 28 compounds are collected here from patent US20230045421A1 (priority 2018, published 2023).

What is called EC50 is the concentration needed to bring the measured effect to its halfway point.

The test system of the first experiment is HBV rcDNA. Nature of the experiment: HepDE19 assay with bDNA quantitation of HBV rcDNA. Type of experiment: cell-based, hepatitis B virus. The settings on record: Hepatitis B virus, HepDE19, HepDE19 assay, inhibition of formation of rcDNA; read-out: DE-19bDNA EC50. As to the method: HepDE19 Assay with bDNA Quantitation of HBV rcDNA:
HepDE19 cell culture system is a HepG2 (human hepatocarcinoma) derived cell line that supports HBV DNA replication and cccDNA formation in a tetracycline (Tet)-regulated manner and produces HBV rcDNA and a detectable reporter molecule dependent on the production and maintenance of cccDNA (Guo, et al., 2007, J. Virol. 81:12472-12484).
HepDE19 (50,000 cells/well) were plated in 96-well collagen-coated tissue-culture treated microtiter plates in DMEM/F12 medium supplemented with 10% fetal bovine serum, 1% penicillin-streptomycin and 1 μg/mL tetracycline and incubated in a humidified incubator at 37° C. and 5% CO2 overnight. Next day, the cells were switched to fresh medium without tetracycline and incubated for 4 hours at 37° C. and 5% CO2. The cells were treated with fresh Tet-free medium with compounds at concentrations starting at 25 μM and a serial, […], 8-point, titration series in duplicate. The final DMSO concentration in the assay was 0.5%. The plates were incubated for 7 days in a humidified incubator at 37° C. and 5% CO2. Following a 7 day-incubation, the level of rcDNA present in the inhibitor-treated wells was measured using a Quantigene 2.0 bDNA assay kit (Affymetrix, Santa Clara, Calif.) with HBV specific custom probe set and manufacturers instructions. Concurrently, the effect of compounds on cell viability was assessed using replicate plates, plated at a density of 5,000 cells/well and incubated for 4 days, to determine the ATP content as a measure of cell viability using the cell-titer glo reagent (CTG; Promega Corporation, Madison, Wis.) as per manufacturer's instructions. The plates were read using a Victor luminescence plate reader (PerkinElmer Model 1420 Multilabel counter) and the relative luminescence units (RLU) data generated from each well was calculated as % inhibition of the untreated control wells and analyzed using XL-Fit module in Microsoft Excel to determine EC50 and EC90 (bDNA) and CC50 (CTG) values using a 4-parameter curve fitting algorithm.
With `CC(c1c[nH]c(=O)c2ccccc12)N(C)C(=O)Nc1ccc(F)c(Cl)c1` (racemic) [Compound 12, 3-(3-Chloro-4-fluorophenyl)-1-methyl-1-(1-(1-oxo-1,2-dihydroisoquinolin-4-yl)ethyl)urea], the concentration giving a half-maximal response (EC50) was determined as 160 nM.

`COc1ncc(C(CCO)NC(=O)Nc2ccc(F)c(Cl)c2)c2ccccc12` (racemic) [Compound 71, 1-(3-Chloro-4-fluorophenyl)-3-(3-hydroxy-1-(1-methoxyisoquinolin-4-yl)propyl)urea]: the EC50 stood at 4400 nM.

With `CC(=O)NCCN(C(=O)Nc1ccc(F)c(Cl)c1)C(C)c1c[nH]c(=O)c2ccccc12` (racemic) [Compound 100, N-(2-(3-(3-chloro-4-fluorophenyl)-1-(1-(1-oxo-1,2-dihydroisoquinolin-4-yl)ethyl)ureido)ethyl)acetamide], the EC50 turned out to be 1000 nM.

Turning to `CCN(C(=O)Nc1ccc(F)c(Cl)c1)C(C)c1c[nH]c(=O)c2cnccc12` (racemic) [Compound 102, 3-(3-Chloro-4-fluorophenyl)-1-ethyl-1-(1-(1-oxo-1,2-dihydro-2,7-naphthyridin-4-yl)ethyl)urea], the EC50 turned out to be 100 nM.

`CC(c1c[nH]c(=O)c2ccccc12)N(CCC#N)C(=O)Nc1ccc(F)c(Cl)c1` (racemic) [Compound 103, 3-(3-chloro-4-fluorophenyl)-1-(2-cyanoethyl)-1-(1-(1-oxo-1,2-dihydroisoquinolin-4-yl)ethyl)urea]: the half-maximal effective concentration (EC50) came to 270 nM.

In the case of `CNC(=O)CCN(C(=O)Nc1ccc(F)c(Cl)c1)C(C)c1c[nH]c(=O)c2ccccc12` (racemic) [Compound 104, 3-(3-(3-chloro-4-fluorophenyl)-1-(1-(1-oxo-1,2-dihydroisoquinolin-4-yl)ethyl)ureido)-N-methylpropanamide], the EC50 stood at 570 nM.

Take `CC(c1c[nH]c(=O)c2ccccc12)N(CC(N)=O)C(=O)Nc1ccc(F)c(Cl)c1` (racemic) [Compound 128, 2-(3-(3-Chloro-4-fluorophenyl)-1-(1-(1-oxo-1,2-dihydroisoquinolin-4-yl)ethyl)ureido) acetamide]: the EC50 is 1500 nM.

With `CC(c1c[nH]c(=O)c2ccccc12)N(CC1CCOCC1)C(=O)Nc1ccc(F)c(Cl)c1` (racemic) [Compound 134, 3-(3-chloro-4-fluorophenyl)-1-(1-(1-oxo-1,2-dihydroisoquinolin-4-yl)ethyl)-1-((tetrahydro-2H-pyran-4-yl)methyl)urea], the concentration giving a half-maximal response (EC50) is 70 nM.

For the compound `CC(C)CN(C(=O)Nc1ccc(F)c(Cl)c1)C(C)c1c[nH]c(=O)c2ccccc12` (racemic) [Compound 135, 3-(3-chloro-4-fluorophenyl)-1-isobutyl-1-(1-(1-oxo-1,2-dihydroisoquinolin-4-yl)ethyl)urea], the EC50 came out at 10 nM.

In the case of `CNc1ncc(C(C)N(C)C(=O)Nc2ccc(F)c(Cl)c2)c2nccnc12` (racemic) [Compound 136, 3-(3-chloro-4-fluorophenyl)-1-methyl-1-(1-(5-(methylamino)pyrido[3,4-b]pyrazin-8-yl)ethyl)urea], the EC50 was 2800 nM.

Consider `COc1ncc(C(C)N(C)C(=O)Nc2ccc(F)c(Cl)c2)c2nccnc12` (racemic) [Compound 137, 3-(3-chloro-4-fluorophenyl)-1-(1-(5-methoxypyrido[3,4-b]pyrazin-8-yl)ethyl)-1-methylurea], for which the EC50 was found to be 6100 nM.

For `CC(c1c[nH]c(=O)c2ccccc12)N(CC(=O)N(C)C)C(=O)Nc1ccc(F)c(Cl)c1` (racemic) [Compound 147, 2-(3-(3-Chloro-4-fluorophenyl)-1-(1-(1-oxo-1,2-dihydroisoquinolin-4-yl)ethyl)ureido)-N,N-dimethylacetamide], the EC50 was 840 nM.

On to `CC(c1c[nH]c(=O)c2nccnc12)N(C)C(=O)Nc1ccc(F)c(Cl)c1` (racemic) [Compound 148, 3-(3-chloro-4-fluorophenyl)-1-methyl-1-(1-(5-oxo-5,6-dihydropyrido[3,4-b]pyrazin-8-yl)ethyl)urea], for which the EC50 came to 15000 nM.

For `CC(C)CN(C(=O)Nc1ccc(F)c(Cl)c1)C(C)c1c[nH]c(=O)c2cnccc12` (racemic) [Compound 154, 3-(3-Chloro-4-fluorophenyl)-1-isobutyl-1-(1-(1-oxo-1,2-dihydro-2,7-naphthyridin-4-yl)ethyl)urea], the EC50 came to 20 nM.

On to `CC(c1c[nH]c(=O)c2ccccc12)N(CCCN)C(=O)Nc1ccc(F)c(Cl)c1` (racemic) [Compound 157, 1-(3-aminopropyl)-3-(3-chloro-4-fluorophenyl)-1-(1-(1-oxo-1,2-dihydroisoquinolin-4-yl)ethyl)urea], for which the EC50 stood at 23000 nM.

Turning to `COc1ncc(C(C)N(CCNCC(F)(F)F)C(=O)Nc2ccc(F)c(Cl)c2)c2ccccc12` (racemic) [Compound 158, 3-(3-Chloro-4-fluorophenyl)-1-(1-(1-methoxyisoquinolin-4-yl)ethyl)-1-(2-((2,2,2-trifluoroethyl)amino)ethyl)urea], the EC50 came to 2700 nM.

Regarding `COc1ccc2c(C(C)N(C)C(=O)Nc3ccc(F)c(Cl)c3)c[nH]c(=O)c2c1` (racemic) [Compound 173, 3-(3-Chloro-4-fluorophenyl)-1-(1-(7-methoxy-1-oxo-1,2-dihydroisoquinolin-4-yl)ethyl)-1-methylurea], the EC50 worked out at 380 nM.

In the case of `CC(c1c[nH]c(=O)c2ccccc12)N(C[C@H]1CC[C@H](O)CC1)C(=O)Nc1ccc(F)c(Cl)c1` (mixture of isomers) [Compound 221, trans-3-(3-Chloro-4-fluorophenyl)-1-((4-hydroxycyclohexyl)methyl)-1-(1-(1-oxo-1,2-dihydroisoquinolin-4-yl)ethyl)urea], the EC50 came to 210 nM.

As for `CC(c1c[nH]c(=O)c2ccccc12)N(C[C@H]1CC[C@@H](O)CC1)C(=O)Nc1ccc(F)c(Cl)c1` (mixture of isomers) [Compound 225, cis-3-(3-Chloro-4-fluorophenyl)-1-((4-hydroxycyclohexyl)methyl)-1-(1-(1-oxo-1,2-dihydroisoquinolin-4-yl)ethyl)urea], the concentration giving a half-maximal response (EC50) is 80 nM.

For `CC(c1cn(CC(F)(F)F)c(=O)c2ccccc12)N(C)C(=O)Nc1ccc(F)c(Cl)c1` (racemic) [Compound 228, 3-(3-Chloro-4-fluorophenyl)-1-methyl-1-(1-(1-oxo-2-(2,2,2-trifluoroethyl)-1,2-dihydroisoquinolin-4-yl)ethyl)urea], the EC50 is 780 nM.

As for `CC(C)CN(C(=O)Nc1ccc(F)c(Cl)c1)C(C)c1cn(CC(F)(F)F)c(=O)c2ccccc12` (racemic) [Compound 229, 3-(3-Chloro-4-fluorophenyl)-1-isobutyl-1-(1-(1-oxo-2-(2,2,2-trifluoroethyl)-1,2-dihydroisoquinolin-4-yl)ethyl)urea], the EC50 was found to be 70 nM.

`Cc1cc(NC(=O)N(C)C(C)c2c(C)[nH]c(=O)c3ccccc23)ccc1F` (racemic) [Compound 230, 3-(4-Fluoro-3-methylphenyl)-1-methyl-1-(1-(3-methyl-1-oxo-1,2-dihydroisoquinolin-4-yl)ethyl)urea]: the EC50 turned out to be 120 nM.

Consider `CC(C)CN(C(=O)Nc1ccc(F)cc1)C(C)c1cn(CC(F)(F)F)c(=O)c2ccccc12` (racemic) [Compound 235, 3-(4-Fluorophenyl)-1-isobutyl-1-(1-(1-oxo-2-(2,2,2-trifluoroethyl)-1,2-dihydroisoquinolin-4-yl)ethyl)urea], for which the EC50 amounted to 210 nM.

Consider `CC(c1cnc(NCCN)c2ccccc12)N(C)C(=O)Nc1ccc(F)c(Cl)c1` (racemic) [Compound 244, 1-(1-(1-((2-aminoethyl)amino)isoquinolin-4-yl)ethyl)-3-(3-chloro-4-fluorophenyl)-1-methylurea], for which the EC50 turned out to be 2700 nM.

As to `CC(c1c[nH]c(=O)c2cc(F)ccc12)N(C)C(=O)Nc1ccc(F)c(Cl)c1` (racemic) [Compound 257, 3-(3-Chloro-4-fluorophenyl)-1-(1-(7-fluoro-1-oxo-1,2-dihydroisoquinolin-4-yl)ethyl)-1-methylurea], the EC50 was 33 nM.

`CC(c1c[nH]c(=O)c2cc(F)ccc12)N(C)C(=O)Nc1ccc(F)cc1` (racemic) [Compound 258, 3-(4-Fluorophenyl)-1-(1-(7-fluoro-1-oxo-1,2-dihydroisoquinolin-4-yl)ethyl)-1-methylurea]: the EC50 worked out at 150 nM.

Regarding `CC(c1c[nH]c(=O)c2cc(Cl)ccc12)N(C)C(=O)Nc1ccc(F)c(Cl)c1` (racemic) [Compound 271, 1-(1-(7-Chloro-1-oxo-1,2-dihydroisoquinolin-4-yl)ethyl)-3-(3-chloro-4-fluorophenyl)-1-methylurea], the EC50 was found to be 200 nM.

The experiment is the same for the next values; noted with them: Hepatitis B virus, HepDE19, HepDE19 assay, inhibition of formation of relaxed circular DNA (rcDNA), bDNA quantitation; read-out: DE-19bDNA EC50.
For the compound `CC(c1cnc(-n2cncn2)c2ccccc12)N(C)C(=O)Nc1ccc(F)c(Cl)c1` (racemic) [Compound 297, 1-(1-(1-(1H-1,2,4-triazol-1-yl)isoquinolin-4-yl)ethyl)-3-(3-chloro-4-fluorophenyl)-1-methylurea], the EC50 was found to be 180 nM.
